From PMC10786919, “Design-rules for stapled peptides with in vivo activity and their application to Mdm2/X antagonists” (Nature Communications, 2024)
Values after ≈ are worked out from the molar mass of the structure shown. Where two headings read alike, the source gives them in different places. Positions of bridges follow the written chain, without caps; N, C: chain ends. Non-standard residues stand in square brackets, D forms with d. Residues, ends and D or L forms follow the SMILES beside them. R8 = C=CCCCCCC[C@@](C)(N)C(=O)O; Cba = N[C@@H](CC1CCC1)C(=O)O; S5 = C=CCCC[C@](C)(N)C(=O)O

Columns and labels:
HCT116 cells = test: Lactate dehydrogenase (LDH) release assay; type: cell-based
How it was run: (§1)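 Geometric means of at least three independent biological runs are given for LDH release measured in HCT116 cells stably expressing a p53-driven β-lactamase reporter. Plating density was 8000 cells/well; DMSO in wells was 0.5%.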

[1] = Lactate dehydrogenase (LDH) release assay; type: cell-based
How it was run: as §1

[2] = Experimental LogD (partition coefficient); conditions: not stated, Partition Coeff LogD
[3] = Solubility assay (kinetic solubility, PBS pH 7); type: physicochemical; conditions: pH 7, aqueous buffer, kinetic from dmso stock, pH 7, PBS; read-out: Solubility
How it was run: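 Quantitation uses an external standard at 100 µM, prepared from 10 mM stock in acetonitrile:methanol:DMSO (10:80:10). Solubility (µM) = (peak area of sample ÷ peak area of standard) × standard concentration.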

[4] = 0% FBS 4Hr, read-out: LDH: Cytotoxicity assay EC50

CC(=O)N[C@@H](CC(C)C)C(=O)N[C@H](C(=O)N[C@@H](Cc1ccccc1)C(=O)N[C@]1(C)CCCCCCC=CCCC[C@@](C)(C(=O)N[C@@H](CO)C(=O)N[C@@H](C)C(=O)N[C@@H](C)C(N)=O)NC(=O)[C@H](CC2CCC2)NC(=O)[C@H](CC(C)C)NC(=O)[C@H](CCC(N)=O)NC(=O)[C@H](Cc2c[nH]c3ccccc23)NC(=O)[C@H](Cc2ccc(O)cc2)NC(=O)[C@H](Cc2c[nH]cn2)NC1=O)[C@@H](C)O [MP-199, ATSP-7041 (E5H)] (Ac-LTF[R8]HYWQL[Cba][S5]SAA-NH2; staple 4-11)
LDH: Cytotoxicity assay % Effect (HCT116 cells; 0% FBS 4Hr): 4.035% | LDH: Cytotoxicity assay % Effect (HCT116 cells; 0% FBS 16Hr): 24.3% | EC50 [1, 4]: > 50 µM | logD [2]: 3.25 | solubility kinetic [3]: 5 µM (≈ 8.98 µg/mL) | EPSA (physchem): 201 A^2

CC(=O)N[C@@H](C)C(=O)N[C@@H](C)C(=O)N[C@@H](Cc1ccccc1)C(=O)N[C@]1(C)CCCCCCC=CCCC[C@@](C)(C(=O)N[C@@H](CO)C(=O)N[C@@H](C)C(=O)N[C@@H](C)C(N)=O)NC(=O)[C@H](CC2CCC2)NC(=O)[C@H](C)NC(=O)[C@H](C)NC(=O)[C@H](Cc2c[nH]c3ccccc23)NC(=O)[C@H](Cc2ccc(O)cc2)NC(=O)[C@H](CCC(=O)O)NC1=O [MP-1207] (Ac-AAF[R8]EYWAA[Cba][S5]SAA-NH2; staple 4-11)
EC50 ([1]; LDH: Cytotoxicity assay EC50): > 50 µM | logD [2]: 2.91 | solubility kinetic [3]: 171 µM (≈ 276 µg/mL) | EPSA (physchem): 224 A^2

CC(=O)N[C@@H](Cc1ccccc1)C(=O)N[C@]1(C)CCCCCCC=CCCC[C@@](C)(C(=O)N[C@@H](CO)C(=O)N[C@@H](C)C(=O)N[C@@H](C)C(N)=O)NC(=O)[C@H](CC2CCC2)NC(=O)[C@H](CC(C)C)NC(=O)[C@H](CCC(N)=O)NC(=O)[C@H](Cc2c[nH]c3ccccc23)NC(=O)[C@H](Cc2ccc(O)cc2)NC(=O)[C@H](CCC(=O)O)NC1=O [MP-1202] (Ac-F[R8]EYWQL[Cba][S5]SAA-NH2; staple 2-9)
EC50 ([1]; LDH: Cytotoxicity assay EC50): > 50 µM | logD [2]: 2.59 | solubility kinetic [3]: 15 µM (≈ 23.6 µg/mL) | EPSA (physchem): 214 A^2

CC(=O)N[C@@H](CC(C)C)C(=O)N[C@@H](CCCNC(=N)N)C(=O)N[C@@H](Cc1ccccc1)C(=O)N[C@]1(C)CCCCCCC=CCCC[C@@](C)(C(=O)N[C@@H](CO)C(=O)N[C@@H](C)C(=O)N[C@@H](C)C(N)=O)NC(=O)[C@H](CC2CCC2)NC(=O)[C@H](CC(C)C)NC(=O)[C@H](CCC(N)=O)NC(=O)[C@H](Cc2c[nH]c3ccccc23)NC(=O)[C@H](Cc2ccc(O)cc2)NC(=O)[C@H](CCC(=O)O)NC1=O [MP-1192] (Ac-LRF[R8]EYWQL[Cba][S5]SAA-NH2; staple 4-11)
EC50 ([1]; LDH: Cytotoxicity assay EC50): > 50 µM | logD [2]: 2.79 | solubility kinetic [3]: 3 µM (≈ 5.53 µg/mL) | EPSA (physchem): 220 A^2

CC(=O)N[C@@H](CC(C)C)C(=O)N[C@@H](Cc1c[nH]cn1)C(=O)N[C@@H](Cc1ccccc1)C(=O)N[C@]1(C)CCCCCCC=CCCC[C@@](C)(C(=O)N[C@@H](CO)C(=O)N[C@@H](C)C(=O)N[C@@H](C)C(N)=O)NC(=O)[C@H](CC2CCC2)NC(=O)[C@H](CC(C)C)NC(=O)[C@H](CCC(N)=O)NC(=O)[C@H](Cc2c[nH]c3ccccc23)NC(=O)[C@H](Cc2ccc(O)cc2)NC(=O)[C@H](CCC(=O)O)NC1=O [MP-198, ATSP-7041 (T2H)] (Ac-LHF[R8]EYWQL[Cba][S5]SAA-NH2; staple 4-11)
LDH: Cytotoxicity assay % Effect (HCT116 cells; 0% FBS 4Hr): 2.825% | LDH: Cytotoxicity assay % Effect (HCT116 cells; 0% FBS 16Hr): -3.86% | EC50 [1, 4]: > 50 µM | logD [2]: 2.81 | solubility kinetic [3]: 25 µM (≈ 45.6 µg/mL) | EPSA (physchem): 209 A^2

CC(=O)N[C@@H](CC(C)C)C(=O)N[C@H](C(=O)N[C@@H](Cc1ccccc1)C(=O)N[C@]1(C)CCCCCCC=CCCC[C@@](C)(C(=O)N[C@@H](CO)C(N)=O)NC(=O)[C@H](CC2CCC2)NC(=O)[C@H](CC(C)C)NC(=O)[C@H](CCC(N)=O)NC(=O)[C@H](Cc2c[nH]c3ccccc23)NC(=O)[C@H](Cc2ccc(O)cc2)NC(=O)[C@H](CCC(=O)O)NC1=O)[C@@H](C)O [MP-204] (Ac-LTF[R8]EYWQL[Cba][S5]S-NH2; staple 4-11)
EC50 ([1]; LDH: Cytotoxicity assay EC50): > 50 µM | logD [2]: 2.81 | solubility kinetic [3]: 15 µM (≈ 24.7 µg/mL) | EPSA (physchem): 216 A^2

CC(=O)N[C@@H](CC(C)C)C(=O)N[C@H](C(=O)N[C@@H](Cc1ccccc1)C(=O)N[C@]1(C)CCCCCCC=CCCC[C@@](C)(C(=O)N[C@@H](CO)C(=O)N[C@@H](C)C(=O)N[C@@H](C)C(N)=O)NC(=O)[C@H](CC2CCC2)NC(=O)[C@H](Cc2c[nH]cn2)NC(=O)[C@H](CCC(N)=O)NC(=O)[C@H](Cc2c[nH]c3ccccc23)NC(=O)[C@H](Cc2ccc(O)cc2)NC(=O)[C@H](CCC(=O)O)NC1=O)[C@@H](C)O [MP-200, ATSP-7041 (L9H)] (Ac-LTF[R8]EYWQH[Cba][S5]SAA-NH2; staple 4-11)
EC50 ([1]; LDH: Cytotoxicity assay EC50): > 50 µM | logD [2]: 2.69 | solubility kinetic [3]: 94.5 µM (≈ 171 µg/mL) | EPSA (physchem): 219 A^2
